According to patent US20250099420A1, “SMALL MOLECULE MODULATORS OF GPR139 COMPLEX” (University of Florida Research Foundation, Incorporated, priority 2022, published 2025):
Read-outs that look alike come from different tables or passages of the source.

Tests used:
parental HEK cells = experiment: HEK parental Agonist Counterscreen Assay (non-transfected cells); type: cell-based; conditions: for Averaged Max % Response (±St. Dev.): activity relative to known control
Source text: The high control for the agonist counterscreen was Forskolin not acetylcholine.

GPR139 = biological target: T1, GPR139 (Homo sapiens, UniProt Q6DWJ6); experiment: GPR139 Agonist titration / agonist counterscreen assay (calcium detection, HEK-GPR139 cells); type: cell-based; parameters: expressed in transfected cells; host or cells: HEK Aequorin cells, Maxcyte transient transfection; conditions: GPR139 Agonist Activity; for EC50: read-out: EC50; for Averaged Max % Response (±St. Dev.): activity relative to known control
T1 sequence (Q6DWJ6 1-353): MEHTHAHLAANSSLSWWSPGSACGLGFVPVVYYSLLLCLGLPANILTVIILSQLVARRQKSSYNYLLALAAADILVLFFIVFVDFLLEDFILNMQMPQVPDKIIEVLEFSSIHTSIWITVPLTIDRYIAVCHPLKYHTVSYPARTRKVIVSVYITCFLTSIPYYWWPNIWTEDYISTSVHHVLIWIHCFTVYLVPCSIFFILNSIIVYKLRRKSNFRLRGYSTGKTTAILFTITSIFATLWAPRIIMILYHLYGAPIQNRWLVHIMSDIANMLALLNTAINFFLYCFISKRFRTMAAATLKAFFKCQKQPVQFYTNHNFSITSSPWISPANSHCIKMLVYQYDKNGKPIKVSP
Method: GPR activity was assessed using a calcium detection assay. […] Negative control samples were treated with DMSO. […] Intracellular calcium was measured using Calcium 5.

[1] = Homo sapiens, HEK293, HEK Agonist Activity section of Table 4 (parental HEK counterscreen)
[2] = HEK Agonist Activity section of Table 4 (parental HEK counterscreen)
[3] = values printed in E-notation without unit
[4] = HEK Agonist Activity, parental non-transfected HEK cells
[5] = Homo sapiens, HEK293, HEK Agonist Activity, parental non-transfected HEK cells

Row | Structure (SMILES) | Lipophilic Efficiency (logD) (parental HEK cells; HEK Agonist Activity section) | Lipophilic Efficiency (logP) (parental HEK cells; HEK Agonist Activity section) | Efficiency Ligand (GPR139) | Hill Slope (GPR139) | Lipophilic Efficiency (logD) (GPR139) | Lipophilic Efficiency (logP) (GPR139) | EC50 (GPR139; HEK-GPR139 cells) | Averaged Max % Response (±St. Dev.) (GPR139) | Lipophilic Efficiency (logD) (GPR139; based on logD) | Lipophilic Efficiency (logP) (GPR139; based on logP) | Hill Slope (GPR139; fitted dose-response curve) | Efficiency Ligand (GPR139; ligand efficiency) | EC50 (GPR139; [3]) | Averaged Max % Response (±St. Dev.) (parental HEK cells; HEK Agonist Activity section) | EC50 (parental HEK cells; [1]) | EC50 (parental HEK cells; [2]) | other results
1 | Cc1c(Cl)c(C(F)(F)F)nn1CC(=O)NCc1ccc(Cl)cc1 [SR-01000429212] | 1.05 | 1.05 | 0.34 | 0.88 | 1.94 | 1.94 | 2.3 µM | 80.96 ± 18.51% | – | – | – | – | – | −31.95 ± 8.26% | > 18 µM | – | –
2 | CCn1c2ccccc2c2cc(C3C(C#N)=C(N)Oc4n[nH]c(C)c43)ccc21 (centres unmarked) [SR-01000465824] | 1.72 | 1.67 | 0.27 | 1.13 | 2.21 | 2.16 | 3.8 µM | 68.48 ± 7.96% | – | – | – | – | – | −11.98 ± 3.62% | – | > 11.8 µM | –
3 | Cc1ccccc1NC(=O)CSC1=C(C#N)C(c2ccccc2C(F)(F)F)C2=C(CCCC2=O)N1 (centres unmarked) [SR-01000484454] | −0.16 | −0.16 | – | – | – | – | – | 96.91 ± 19.53% | 1.98 | 1.98 | 0.52 | 0.28 | 0.0853 µM | 27.15 ± 8.69% | – | > 11.9 µM | –
4 | Cc1ccc(NC(=O)CSC2=C(C#N)C(c3ccc(F)cc3)CC(=O)N2)c(C)c1 (centres unmarked) [SR-01000484494] | 0.89 | 0.89 | 0.28 | 0.89 | 1.82 | 1.82 | 1.9 µM | 114.96 ± 19.78% | – | – | – | – | – | 14.09 ± 3.35% | – | > 16 µM | –
5 | COc1cc(-c2nnc(COc3ccc(Cl)cc3C)o2)cc(OC)c1OC [SR-01000504687] | – | – | – | – | – | – | – | 92.66 ± 5.93% | 4.45 | 4.45 | 0.62 | 0.40 | 0.0194 µM | – | – | – | Lipophilic Efficiency (logD) (parental HEK cells; HEK Agonist Activity): 1.65; Lipophilic Efficiency (logP) (parental HEK cells; HEK Agonist Activity): 1.65; Averaged Max % Response (±St. Dev.) (parental HEK cells; HEK Agonist Activity): −3.10 ± 6.59%; EC50 (parental HEK cells; [4]): > 12.2 µM
6 | CC(Oc1ccc(Cl)cc1Cl)C(=O)NNC(=O)c1ccc(F)cc1 (centres unmarked) [SR-01000520452] | 1.26 | 1.13 | – | – | – | – | – | 113.17 ± 28.03% | 3.08 | 2.96 | 0.85 | 0.39 | 0.235 µM | 1.29 ± 6.31% | > 15.7 µM | – | –
7 | CC(Oc1ccc(O)cc1Cl)C(=O)NNC(=O)c1cccc(F)c1 (centres unmarked) [SR-01000520454] | – | – | – | – | – | – | – | 113.77 ± 7.21% | 5.60 | 5.48 | – | 0.53 | > 0.000703 µM | – | – | – | Lipophilic Efficiency (logD) (parental HEK cells; HEK Agonist Activity): 1.31; Lipophilic Efficiency (logP) (parental HEK cells; HEK Agonist Activity): 1.19; Averaged Max % Response (±St. Dev.) (parental HEK cells; HEK Agonist Activity): 15.83 ± 2.96%; EC50 (parental HEK cells; [5]): > 13.8 µM
8 | CSc1cccc(NC(=O)C2C3C=CC4(O3)C2C(=O)N(C(C)c2ccccc2)C4C(=O)NC2CCCC(C)C2C)c1 (centres unmarked) [SR-01000545824] | −0.052 | −0.052 | – | – | – | – | – | 103.05 ± 12.22% | 1.92 | 1.92 | 0.41 | 0.23 | 0.145 µM | −0.19 ± 3.69% | – | > 13.6 µM | –
9 | CSc1cccc(NC(=O)C2C3C=CC4(O3)C2C(=O)N(C(C)c2ccccc2)C4C(=O)NC2CCCCC2)c1 (centres unmarked) [SR-01000546462] | 0.56 | 0.56 | – | – | – | – | – | 107.13 ± 9.94% | 2.98 | 2.98 | 0.51 | 0.26 | 0.0565 µM | 0.58 ± 3.78% | – | > 15.1 µM | –
10 | Cc1ccc(CN2CC34C=CC(O3)C(C(=O)NCCC3=CCCCC3)C4C2=O)cc1 (centres unmarked) [SR-01000550322] | 1.99 | 1.99 | 0.27 | 0.73 | 2.87 | 2.87 | 1.8 µM | 86.57 ± 2.15% | – | – | – | – | – | −6.25 ± 1.61% | – | > 13.4 µM | –
11 | CCc1cc(C2=C/C(=C/c3c(OC)ccc4ccccc34)C(=O)O2)cc(OC)c1OC [SR-01000551463] | 0.71 | 0.71 | – | – | – | – | – | 110.88 ± 6.83% | 3.11 | 3.11 | 0.64 | 0.33 | 0.0496 µM | 18.60 ± 9.91% | > 12.2 µM | – | –
12 | C=C1N=C(NC2CCCCCC2)c2ccccc2N1 [SR-01000565308] | 1.03 | 0.98 | 0.45 | 1.89 | 2.40 | 2.36 | – | 90.10 ± 8.93% | – | – | – | – | – | 25.00 ± 13.25% | > 17.5 µM | – | –

More lines, main results first:

Row | Lipophilic Efficiency (logD) (parental HEK cells; HEK Agonist Activity section) | Lipophilic Efficiency (logP) (parental HEK cells; HEK Agonist Activity section) | Efficiency Ligand (GPR139) | Hill Slope (GPR139) | Lipophilic Efficiency (logD) (GPR139) | Lipophilic Efficiency (logP) (GPR139) | EC50 (GPR139; HEK-GPR139 cells) | Averaged Max % Response (±St. Dev.) (GPR139) | Lipophilic Efficiency (logD) (GPR139; based on logD) | Lipophilic Efficiency (logP) (GPR139; based on logP) | Hill Slope (GPR139; fitted dose-response curve) | Efficiency Ligand (GPR139; ligand efficiency) | EC50 (GPR139; [3]) | Structure (SMILES) | Averaged Max % Response (±St. Dev.) (parental HEK cells; HEK Agonist Activity section) | EC50 (parental HEK cells; [1]) | EC50 (parental HEK cells; [2]) | other results
13 | 1.48 | 1.48 | 0.36 | 0.84 | 3.11 | 3.11 | 0.437 µM | 109.12 ± 32.80% | – | – | – | – | – | CCN(Cc1ccccc1)C(=O)Cn1cnc2sc(O)c(C)c2c1=O [SR-01000468553] | 35.00 ± 2.11% | > 18.5 µM | – | –
14 | 2.56 | 2.56 | 0.40 | 1.21 | 4.24 | 4.24 | 0.277 µM | 101.79 ± 19.12% | – | – | – | – | – | O=C(CCOc1ccccc1)NCC1COc2ccccc2O1 (centres unmarked) [SR-01000479007] | 8.46 ± 4.77% | – | > 13.2 µM | –
15 | 1.74 | 1.74 | 0.42 | 0.93 | 3.32 | 3.32 | 0.454 µM | 109.30 ± 27.76% | – | – | – | – | – | Cc1cccc(C(=O)NNC(=O)CCc2ccccc2)c1 [SR-01000513008] | −5.44 ± 7.74% | > 17.1 µM | – | –
16 | – | – | – | – | – | – | – | 98.34 ± 6.18% | 4.61 | 4.61 | 0.92 | 0.57 | 0.0162 µM | Cn1cnnc1SCc1ccc(F)c2ccccc12 [SR-01000524029] | – | – | – | Lipophilic Efficiency (logD) (parental HEK cells; HEK Agonist Activity): 1.61; Lipophilic Efficiency (logP) (parental HEK cells; HEK Agonist Activity): 1.61; Averaged Max % Response (±St. Dev.) (parental HEK cells; HEK Agonist Activity): 9.45 ± 2.06%; EC50 (parental HEK cells; [4]): > 16 µM
17 | – | – | – | – | – | – | – | 96.70 ± 23.19% | 4.05 | 4.05 | 0.19 | 0.57 | – | CC1=CN=C(CCc2ccc(F)c3ccccc23)C1 [SR-01000525232] | – | – | – | Lipophilic Efficiency (logD) (parental HEK cells; HEK Agonist Activity): 1.09; Lipophilic Efficiency (logP) (parental HEK cells; HEK Agonist Activity): 1.09; Averaged Max % Response (±St. Dev.) (parental HEK cells; HEK Agonist Activity): −17.88 ± 3.50%; EC50 (parental HEK cells; [5]): > 17.4 µM
18 | 1.85 | 1.85 | 0.37 | 1.15 | 3.01 | 3.01 | 0.955 µM | 81.65 ± 6.38% | – | – | – | – | – | COc1ccc(SCC(=O)NNC(=S)Nc2ccccc2)cc1 [SR-01000526835] | 7.64 ± 8.84% | > 13.9 µM | – | –
19 | – | – | – | – | – | – | – | 136.02 ± 19.68% | 2.73 | 2.73 | – | 0.39 | – | O=C(CCc1nc2ccccc2n1-c1ccccc1)NCCc1ccccc1 [SR-01000535824] | – | – | – | Lipophilic Efficiency (logD) (parental HEK cells; HEK Agonist Activity): −0.133; Lipophilic Efficiency (logP) (parental HEK cells; HEK Agonist Activity): −0.133; Averaged Max % Response (±St. Dev.) (parental HEK cells; HEK Agonist Activity): 34.71 ± 16.19%; EC50 (parental HEK cells; [5]): > 12.1 µM
